Where a name gives a salt, the structure may show the parent alone. Read-outs that look alike come from different tables or passages of the source. Each block holds one molecule with its values, some of them ahead of it.
Assays:
[1] = tested on: Human coronary artery endothelial cells (EC); test: Endothelial cell (EC) antiproliferation assay; assay type: cell-based; conditions: inhibition of proliferation, viable cell count ~68 hours after addition
Experimental: (§1) Human coronary artery smooth muscle cells (SMC) and endothelial cells (EC) were supplied by Cambrex Bio Science Walkersville, Inc. (Walkersville, MD). The smooth muscle cells were maintained in a basal medium, EBM (Cambrex Bio Science Walkersville, Inc), without phenol red and supplemented with 5% (v/v) fetal bovine serum (FBS), human recombinant epidermal growth factor (EGF), human recombinant fibroblast growth factor (FGF), bovine insulin, 50 μg/mL gentamicin sulfate, and 50 ng/mL amphotericin B (all obtained from Cambrex Bio Science Walkersville, Inc. as SMGM2 SingleQuots). The endothelial cells were grown in a modified EGM2-MV medium (Cambrex Bio Science Walkersville, Inc.), which had the same, phenol red-free, basal medium, EBM, as used in the smooth muscle cell medium, but were supplemented with 5% (v/v) fetal bovine serum (FBS), human recombinant epidermal growth factor (EGF), human recombinant fibroblast growth factor (FGF), vascular endothelial growth factor (VEGF), recombinant insulin-like growth factor-1 (IGF-1), ascorbic acid, 50 μg/mL gentamicin sulfate, and 50 ng/mL amphotericin B (all supplied by Cambrex Bio Science Walkersville, Inc. as EGM2-MV SingleQuots). All cells were incubated under humidified 95% air-5% CO2 at 37° C.
(§2) For the SMC/EC Antiproliferation Assay, the cells were seeded at 4×10^4 viable cells in 2 mL of the appropriate medium per well of a Corning tissue culture 24 well plate (Corning, N.Y.). Stock solutions of the test compounds were prepared just prior to addition to the cells by dissolving in DMSO at a concentration 1000 times the highest concentration to be assayed. This stock solution was diluted, as required, with DMSO to the required concentration. On the same day the cells were seeded, but after they had attached and spread out (about 3 hr), each test compound in varying concentrations (2 μL of the diluted stock solutions) was added to four replicate wells (n=4) for each concentration. Control cultures received 2 μL of DMSO per well (n=4). On the following morning, the cultures were examined microscopically and their condition, including evidence of cytotoxicity, recorded. ˜68 hours after the addition of the test compound, the cultures were examined microscopically and the viable cells counted with a hemacytometer following trypsinization with 0.25% trypsin-1 mM EDTA. Trypan Blue dye exclusion was used to discriminate between viable and dead cells. The results are presented as % of the control viable cell count (mean±SEM) and are used to determine the IC50 for the inhibition of proliferation of vascular smooth muscle and endothelial cells.

[2] = tested on: Human coronary artery smooth muscle cells (SMC); test: Vascular smooth muscle cell (SMC) antiproliferation assay; assay type: cell-based; conditions: inhibition of proliferation, viable cell count ~68 hours after addition
Experimental: as §1, §2

[3] = Homo sapiens, Endothelial cell, EC strain 3033, read-out: EC Strain 3033, IC50
[4] = Homo sapiens, SMC strain 3033, read-out: SMC Strain 3033, IC50

Compound: O=S(=O)(c1ccccc1)c1c(OCC(COc2no[n+]([O-])c2S(=O)(=O)c2ccccc2)Oc2no[n+]([O-])c2S(=O)(=O)c2ccccc2)no[n+]1[O-] [Example 4]
- IC50 ([1]; EC strain 3033, read-out: EC Strain 3033, IC50): 346 nM
- IC50 ([2]; SMC strain 5286, read-out: SMC Strain 5286, IC50): 13 nM
- IC50 ([2]; SMC strain 9557-1, read-out: SMC Strain 9557-1, IC50): 9 nM

Compound: O=S(=O)(c1ccccc1)c1c(OCCNCCOc2no[n+]([O-])c2S(=O)(=O)c2ccccc2)no[n+]1[O-] [Example 2b, Ethanamine, 2-[[5-oxido-4-(phenylsulfonyl)-1,2,5-oxadiazol-3-yl]oxy]-N-[2-[[5-oxido-4-(phenylsulfonyl)-1,2,5-oxadiazol-3-yl]oxy]ethyl]-, 2-hydroxy-1,2,3-propanetricarboxylate (1:1) (salt)]
- IC50 [1, 3]: 690 nM
- IC50 [2, 4]: 71 nM

- melting point: 187 to 189 °C
Compound: O=S(=O)(c1ccccc1)c1c(OCCOc2no[n+]([O-])c2S(=O)(=O)c2ccccc2)no[n+]1[O-] [Example 5]

Compound: O=S(=O)(c1ccccc1)c1c(OCCN(CCOc2no[n+]([O-])c2S(=O)(=O)c2ccccc2)CCOc2no[n+]([O-])c2S(=O)(=O)c2ccccc2)no[n+]1[O-] [Example 1d, Ethanamine, 2-[[5-oxido-4-(phenylsulfonyl)-1,2,5-oxadiazol-3-yl]oxy]-N,N-bis[2-[[5-oxido-4-(phenylsulfonyl)-1,2,5-oxadiazol-3-yl]oxy]ethyl]-, 2-hydroxy-1,2,3-propanetricarboxylate]
- IC50 [1, 3]: 447 nM
- IC50 ([1]; Homo sapiens, Endothelial cell, EC strain 5675-1, read-out: EC Strain 5675-1, IC50): 460 nM
- IC50 [2, 4]: 6 nM
- IC50 ([2]; Homo sapiens, SMC strain 5286, read-out: SMC Strain 5286, IC50): 17 nM
- IC50 ([2]; Homo sapiens, SMC strain 9557-1, read-out: SMC Strain 9557-1, IC50): 8 nM
